In PMC9964746, “Mechanism of Action and Structure–Activity Relationships of Tetracyclic Small Molecules Acting as Universal Positive Allosteric Modulators of the Cholecystokinin Receptor” (Membranes, 2023):

Assays:
parental CHO cells = experiment: Intracellular calcium assay in parental CHO cells; format: cell-based; settings: compound alone, up to 20 µM
Description: (§1) Biological activity was quantified in the CHO cell lines described above using intracellular calcium assays that were performed, as previously described, using Fura-8-AM (AAT Bioquest, Pleasonton, CA, USA). Full agonist dose–response curves were performed along with determination of maximal responses to 0.1 mM ATP, targeting an endogenous receptor present on the parental cells. Concentration–response curves of peak intracellular calcium responses were analyzed and plotted as percentages of maximal responses using non-linear regression analysis in Prism 9.1 (GraphPad).

[1] = test system: purinergic receptor (P2YR); settings: off-target screen ref 6; cited from earlier work
CCK1R [2] = molecular target: T1, CCK1R (Homo sapiens, UniProt P32238); experiment: Intracellular calcium assay (Fura-8-AM) in CHO-CCK1R cells; format: cell-based; parameters: expressed in transfected cells; settings: for Intrinsic agonist activity at CCK1R (intracellular calcium): CHO-CCK1R cells, compound alone, up to 20 µM; for Kb / Logαβ: operational model of allosterism, mean ± SEM; for Kb: CCK-8-stimulated calcium responses in CCK1R-expressing cells; for Logαβ: cooperativity with CCK-8 in CCK1R-expressing cells
T1 sequence (P32238 1-428): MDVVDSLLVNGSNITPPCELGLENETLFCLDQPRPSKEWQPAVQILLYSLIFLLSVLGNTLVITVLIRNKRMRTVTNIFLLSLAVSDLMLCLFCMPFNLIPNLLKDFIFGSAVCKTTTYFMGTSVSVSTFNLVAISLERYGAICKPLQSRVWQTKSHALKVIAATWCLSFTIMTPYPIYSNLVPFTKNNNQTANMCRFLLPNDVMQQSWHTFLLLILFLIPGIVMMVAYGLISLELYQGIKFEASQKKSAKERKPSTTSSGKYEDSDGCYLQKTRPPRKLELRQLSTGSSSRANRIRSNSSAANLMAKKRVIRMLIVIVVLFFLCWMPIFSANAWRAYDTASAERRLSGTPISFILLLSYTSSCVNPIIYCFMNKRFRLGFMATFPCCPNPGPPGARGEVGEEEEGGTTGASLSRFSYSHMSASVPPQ
Description: as §1

CCK1R [3] = molecular target: T1, CCK1R; experiment: IP-One accumulation TR-FRET assay, PAM format, HEK-293 CCK1R cells; format: cell-based; parameters: expressed in transfected cells; host or cells: HEK-293; settings: for Emax: HEK293; for EC50: PAM format with EC20 CCK
In short: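 HEK-293 cells overexpressing CCK1R were plated overnight, then given compounds (top 50 µM, 16-point 2-fold) for 30 min at 37 °C. CCK stimulator with 50 mM LiCl (PAM format) or DMSO (agonist format) followed for 1 h. IP-One was read by TR-FRET; activity score = CCK-normalized Emax × pEC50.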

[4] = HEK-293 CCK1R cells, PAM format, relative to CCK control, average ± SD
[5] = HEK-293 CCK1R cells, PAM format
[6] = HEK-293 CCK1R cells, average ± SD

CCN(CC)CCNc1ncnc2c1sc1nc(N3CCOCC3)c3c(c12)CCCC3 [CMP-1]
Agonist activity at parental CHO cells (intracellular calcium) (parental CHO cells): no significant endogenous agonist activity
Activity at P2YR [1]: Neither compound exhibited any activity at the P2YR
Intrinsic agonist activity at CCK1R (intracellular calcium) (CCK1R [2]): no significant endogenous agonist activity at CCK1R
Kb (CCK1R [2]): 31.6 µM
Logαβ (CCK1R [2]; listed as Hit 1): 1.5 ± 0.3
Logαβ (CCK1R [2]; listed as hit 1): 1.5
Log(Rmax/R50) (CCK1R [3]; CCK1R IP-One PAM assay): 4.7
Emax (CCK1R [3]; [4]): 60%
CCK1R PAM (IP-One) Score (activity score = normalized Emax × pEC50) (CCK1R [3]; [5]): 2.94
EC50 (CCK1R [3]; [6]): 12.8 ± 4.6 µM
CCK1R PAM (IP-One) Emax (CCK1R [3]; [4]): 63 ± 18%
CCK1R PAM (IP-One) Score (activity score = normalized Emax × pEC50) (CCK1R [3]; HEK-293 CCK1R cells, PAM format, listed as hit 1): 2.9
AUC relative to AUC of endogenous agonist CCK (CCK1R [3]; from activity scores, CCK1R IP-One): approximately 29%

CCCc1nc2oc3c(NCCCN(C)C)ncnc3c2c2c1CCCC2 [CMP-28]
Agonist activity at parental CHO cells (intracellular calcium) (parental CHO cells): no significant endogenous agonist activity
Activity at P2YR [1]: Neither compound exhibited any activity at the P2YR
Intrinsic agonist activity at CCK1R (intracellular calcium) (CCK1R [2]): no significant endogenous agonist activity at CCK1R
Kb (CCK1R [2]): 25.1 µM
Logαβ (CCK1R [2]; listed as Hit 6): 1.0 ± 0.2
Logαβ (CCK1R [2]; listed as hit 6): 1.0
Emax (CCK1R [3]; [4]): 35 ± 13%
CCK1R PAM (IP-One) Score (activity score = normalized Emax × pEC50) (CCK1R [3]; [5]): 1.66
EC50 (CCK1R [3]; [6]): 9.5 ± 3.5 µM
CCK1R PAM (IP-One) Score (activity score = normalized Emax × pEC50) (CCK1R [3]; HEK-293 CCK1R cells, PAM format, listed as hit 6): 1.7
